Results taken from patent publication US20230210861A1 (priority 2020, published 2023).
Values joined by “and” are separate entries in the source; they are usually repeats but may differ in a detail not shown here. Equal entries are not always repeated. “Also recorded” adds a separate entry of the source. Structures can show the parent of a compound that is named as a salt.

Assays:
human alpha3beta4 nAChR [1] = molecular target: T1, human alpha3beta4 nAChR (Homo sapiens, UniProt P30926+P32297); assay: Agonist activity at human alpha3beta4 nAChR expressed in Xenopus oocytes (two-electrode voltage clamp); type: cell-based; details: for agonist character at nAChR alpha3beta4: in words
T1 sequence (P32297 32-505): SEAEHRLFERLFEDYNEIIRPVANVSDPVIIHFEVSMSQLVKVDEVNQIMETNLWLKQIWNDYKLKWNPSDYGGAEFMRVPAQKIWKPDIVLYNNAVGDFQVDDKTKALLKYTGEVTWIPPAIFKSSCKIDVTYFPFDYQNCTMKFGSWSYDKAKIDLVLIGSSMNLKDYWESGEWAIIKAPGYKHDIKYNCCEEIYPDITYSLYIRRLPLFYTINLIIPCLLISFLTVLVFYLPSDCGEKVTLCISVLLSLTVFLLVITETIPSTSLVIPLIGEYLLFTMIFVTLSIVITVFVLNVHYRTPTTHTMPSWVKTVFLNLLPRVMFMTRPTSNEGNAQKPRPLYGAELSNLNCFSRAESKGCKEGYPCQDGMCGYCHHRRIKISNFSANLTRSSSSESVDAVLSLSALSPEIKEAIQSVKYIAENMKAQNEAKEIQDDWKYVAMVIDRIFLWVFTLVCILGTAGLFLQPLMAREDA
T1 sequence (P30926 22-498): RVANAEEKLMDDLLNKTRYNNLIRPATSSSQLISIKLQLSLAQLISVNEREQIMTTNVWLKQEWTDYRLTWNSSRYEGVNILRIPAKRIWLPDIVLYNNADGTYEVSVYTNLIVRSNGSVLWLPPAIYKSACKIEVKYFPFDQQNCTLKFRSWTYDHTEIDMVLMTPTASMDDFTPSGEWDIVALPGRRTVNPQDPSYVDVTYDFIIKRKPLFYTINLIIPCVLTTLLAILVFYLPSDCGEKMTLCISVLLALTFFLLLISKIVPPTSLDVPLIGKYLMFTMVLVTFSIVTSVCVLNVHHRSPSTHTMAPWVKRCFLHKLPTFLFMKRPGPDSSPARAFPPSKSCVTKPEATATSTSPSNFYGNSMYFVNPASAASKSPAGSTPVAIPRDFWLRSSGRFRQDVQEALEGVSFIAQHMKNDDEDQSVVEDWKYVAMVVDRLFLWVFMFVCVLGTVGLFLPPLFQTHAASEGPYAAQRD
Description: (§1) Agonist Preparation: See Example 1.

human alpha7 nAChR [2] = molecular target: T2, human alpha7 nAChR (Homo sapiens, UniProt P36544); assay: Agonist activity at human alpha7 nAChR expressed in Xenopus oocytes (two-electrode voltage clamp); type: cell-based; details: for agonist character at nAChR alpha7: in words
T2 sequence (P36544 23-502): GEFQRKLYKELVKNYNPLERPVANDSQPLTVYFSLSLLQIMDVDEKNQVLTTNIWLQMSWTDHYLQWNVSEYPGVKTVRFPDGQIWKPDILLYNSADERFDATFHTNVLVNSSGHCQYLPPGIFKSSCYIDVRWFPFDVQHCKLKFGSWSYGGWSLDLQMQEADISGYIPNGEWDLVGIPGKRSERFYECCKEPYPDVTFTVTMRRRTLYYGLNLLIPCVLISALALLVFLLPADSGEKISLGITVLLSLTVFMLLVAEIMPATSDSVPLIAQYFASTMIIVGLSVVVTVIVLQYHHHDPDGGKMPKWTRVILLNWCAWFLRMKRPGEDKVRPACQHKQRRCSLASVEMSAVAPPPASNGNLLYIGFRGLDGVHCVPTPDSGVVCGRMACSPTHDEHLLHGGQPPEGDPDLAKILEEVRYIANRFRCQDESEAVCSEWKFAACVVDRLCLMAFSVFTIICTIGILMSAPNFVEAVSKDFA
Description: as §1

human alpha4beta2 nAChR [3] = molecular target: T3, human alpha4beta2 nAChR (Homo sapiens, UniProt P17787+P43681); assay: Agonist activity at human alpha4beta2 nAChR expressed in Xenopus oocytes (two-electrode voltage clamp); type: cell-based; details: for effect on the subsequent ACh-evoked current, alpha4beta2: after the agonist concentration series; for agonist character at nAChR alpha4beta2: in words
T3 sequence (P43681 29-627 limits assumed): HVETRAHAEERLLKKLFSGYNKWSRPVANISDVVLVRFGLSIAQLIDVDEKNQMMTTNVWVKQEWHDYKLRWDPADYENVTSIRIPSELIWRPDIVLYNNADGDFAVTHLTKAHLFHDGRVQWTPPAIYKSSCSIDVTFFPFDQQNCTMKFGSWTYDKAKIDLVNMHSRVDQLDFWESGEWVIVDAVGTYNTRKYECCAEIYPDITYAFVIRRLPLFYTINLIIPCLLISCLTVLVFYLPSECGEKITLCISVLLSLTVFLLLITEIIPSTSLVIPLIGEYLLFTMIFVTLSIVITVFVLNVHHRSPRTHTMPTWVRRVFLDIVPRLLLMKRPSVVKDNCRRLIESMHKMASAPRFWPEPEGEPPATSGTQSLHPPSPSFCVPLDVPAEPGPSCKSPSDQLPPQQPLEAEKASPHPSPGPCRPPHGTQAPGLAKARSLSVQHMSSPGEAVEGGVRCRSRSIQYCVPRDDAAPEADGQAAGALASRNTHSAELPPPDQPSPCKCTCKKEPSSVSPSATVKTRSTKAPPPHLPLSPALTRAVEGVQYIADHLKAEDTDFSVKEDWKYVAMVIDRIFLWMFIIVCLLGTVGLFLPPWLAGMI
T3 sequence (P17787 26-502): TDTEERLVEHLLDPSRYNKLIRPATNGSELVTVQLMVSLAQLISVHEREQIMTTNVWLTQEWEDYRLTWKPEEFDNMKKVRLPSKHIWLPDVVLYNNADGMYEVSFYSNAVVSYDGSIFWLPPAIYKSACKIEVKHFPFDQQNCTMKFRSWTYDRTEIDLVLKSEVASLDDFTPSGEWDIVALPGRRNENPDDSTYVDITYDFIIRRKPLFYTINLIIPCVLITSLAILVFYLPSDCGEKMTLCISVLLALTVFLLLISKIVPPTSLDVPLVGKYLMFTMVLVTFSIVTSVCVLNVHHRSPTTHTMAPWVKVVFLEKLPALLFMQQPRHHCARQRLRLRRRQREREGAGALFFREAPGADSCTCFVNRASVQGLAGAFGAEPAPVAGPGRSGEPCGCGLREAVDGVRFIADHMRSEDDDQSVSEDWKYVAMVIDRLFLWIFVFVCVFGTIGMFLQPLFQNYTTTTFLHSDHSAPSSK
Description: as §1

[4] = molecular target: T4, human alpha3alpha5beta4 nAChR (Homo sapiens, UniProt P30926+P32297); assay: Agonist activity at human alpha3alpha5beta4 nAChR expressed in Xenopus oocytes (two-electrode voltage clamp); details: for EC50: EC50 at nAChR alpha3alpha5beta4, test concentrations 0.1-300 uM; for agonist character at nAChR alpha3alpha5beta4: in words
T4 sequence (P32297 32-505): as the sequence (P32297 32-505) above
T4 sequence (P30532 23-468 partner): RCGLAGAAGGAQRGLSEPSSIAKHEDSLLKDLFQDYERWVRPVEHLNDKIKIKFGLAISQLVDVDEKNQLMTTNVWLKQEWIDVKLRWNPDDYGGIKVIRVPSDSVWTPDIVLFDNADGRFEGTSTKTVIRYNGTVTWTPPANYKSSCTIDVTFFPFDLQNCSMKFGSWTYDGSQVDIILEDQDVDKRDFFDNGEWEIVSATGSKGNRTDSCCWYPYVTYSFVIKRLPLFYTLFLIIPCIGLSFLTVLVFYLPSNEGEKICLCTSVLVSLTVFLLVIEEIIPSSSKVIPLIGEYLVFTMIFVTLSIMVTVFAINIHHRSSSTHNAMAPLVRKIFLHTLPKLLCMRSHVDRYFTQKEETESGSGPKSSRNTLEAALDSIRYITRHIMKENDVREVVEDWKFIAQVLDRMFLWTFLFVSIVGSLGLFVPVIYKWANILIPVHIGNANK
T4 sequence (P30926 22-498): as the sequence (P30926 22-498) above
Description: (§2) All experiments were carried out at human nAChRs expressed in Xenopus oocytes using the method of cDNA expression. Xenopus oocytes were prepared and injected using standard procedures.
Briefly, ovaries were harvested from Xenopus Laevis females that have been deeply anesthetized by cooling at 4° C. and Tricaine methanesulfonate (MS-222 at a concentration of 150 mg/L) in sodium bicarbonate (300 mg/L). Once anesthetized the animal was decapitated and pithed following the rules of animal rights from the Geneva canton. A small piece of ovary was isolated for immediate preparation while the remaining part was placed at 4° C. in a sterile Barth solution containing in mM NaCl 88, KCl 1, NaHCO3 2.4, HEPES 10, MgSO4·7H2O 0.82, Ca(NO3)2·4H2O 0.33, CaCl2·6H2O 0.41, at pH 7.4, and supplemented with 20 ug/ml of kanamycin, 100 unit/ml penicillin. All recordings were performed at 18° C. and cells superfused with OR2 medium containing in mM: NaCl 88, KCl 2.5, HEPES 5, CaCl2·2H2O 1.8, MgCl2·6H2O 1, pH 7.4.
(§3) Currents evoked by ACh or other agonists were recorded using an automated process equipped with standard two-electrode voltage-clamp configuration (TEVC). Data were captured and analyzed using a HiQScreen proprietary data acquisition and analysis software running under Matlab (Mathworks Inc.).
ACh was prepared as a concentrated stock solution (10^−1M) in water and then diluted in the recording medium to obtain the desired test concentration. Compounds were dissolved in OR2 as stock solution (1 mM) and the final dilution to the desired concentration was made on the day of the experiment. OR2 medium contains in mM: NaCl 88.5, KCl 2.5, HEPES 5, CaCl2·2H2 1.8, MgCl2·6H2 1, pH 7.4.
The test concentration of acetylcholine chloride was 1280 uM.
(§4) Injections of cDNAs encoding for the human alpha3beta4, alpha3alpha5beta4, alpha4beta2, and alpha7 were performed in at least 95 oocytes were performed using a proprietary automated injection and receptor expression examined at least two days later. Oocytes were poked with two electrodes and their membrane potential maintained, unless indicated, at −80 mV throughout the experiment.
A protocol to determine agonistic activity in the oocytes expressing the nAChRs was developed. The cells were exposed to a series of increasing concentrations of a compound agonist for 10 seconds each at two minute intervals. The current evoked from exposure to the agonist at each concentration was recorded. For oocytes expressing alpha7 nAChRs, exposure to the agonist was reduced to 5 seconds. This process was repeated for each agonist tested against each type of nAChR expressing cell.
Experimental Procedures: Injections of cDNAs encoding for the human alpha3beta4, alpha3alpha5beta4, alpha4beta2, alpha4alpha6beta2, and alpha7 were performed in at least 95 oocytes using a proprietary automated injection device. Cellular receptor expression was examined at least two days later. Oocytes were poked with two electrodes and their membrane potential maintained, unless indicated, at −80 mV throughout the experiment.
A protocol to determine agonistic activity in the oocytes expressing the nAChRs was developed. Oocytes expressing a nAChR subtype were exposed to a brief test pulse of acetylcholine (1280 uM) while the holding current and response was evaluated. Cells displaying robust currents were washed for 90 seconds. The cells were then exposed to a series of increasing concentrations of a nAChR agonist for 10 seconds each at two minute intervals. The nAChR agonist test concentrations were 0.1, 0.3, 1, 3, 10, 30, 100, 300 (uM). The current evoked from exposure to the agonist at each concentration was recorded.

[5] = molecular target: human alpha4alpha6beta2 nAChR (Homo sapiens, UniProt P17787+P43681+Q15825); assay: Agonist activity at human alpha4alpha6beta2 nAChR expressed in Xenopus oocytes (two-electrode voltage clamp); type: cell-based; details: for agonist character at nAChR alpha4alpha6beta2: in words
human alpha4alpha6beta2 nAChR, sequence (P43681 29-627 limits assumed): as the sequence (P43681 29-627 limits assumed) above
human alpha4alpha6beta2 nAChR, sequence (Q15825 26-494): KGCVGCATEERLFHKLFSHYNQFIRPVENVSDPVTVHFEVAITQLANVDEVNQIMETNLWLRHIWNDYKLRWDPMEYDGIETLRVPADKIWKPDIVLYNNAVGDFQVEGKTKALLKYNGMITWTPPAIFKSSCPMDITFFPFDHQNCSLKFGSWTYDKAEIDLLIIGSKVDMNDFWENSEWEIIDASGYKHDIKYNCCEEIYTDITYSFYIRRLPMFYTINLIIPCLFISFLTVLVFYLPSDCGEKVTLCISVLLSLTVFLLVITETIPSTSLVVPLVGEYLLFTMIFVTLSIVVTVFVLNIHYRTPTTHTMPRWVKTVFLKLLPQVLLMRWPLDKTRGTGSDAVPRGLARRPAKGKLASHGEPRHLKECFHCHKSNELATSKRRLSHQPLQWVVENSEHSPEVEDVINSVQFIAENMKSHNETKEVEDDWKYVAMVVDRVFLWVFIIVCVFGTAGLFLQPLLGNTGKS
human alpha4alpha6beta2 nAChR, sequence (P17787 26-502): as the sequence (P17787 26-502) above
Description: as §1

[6] = molecular target: nAChR subtype alpha3beta2 (Homo sapiens, UniProt P17787+P32297); details: in words; no experiment described; cited from earlier work
nAChR subtype alpha3beta2, sequence (P32297 32-505): as the sequence (P32297 32-505) above
nAChR subtype alpha3beta2, sequence (P17787 26-502): as the sequence (P17787 26-502) above

[7] = Pharmacokinetics in human subjects after 28 days of intranasal administration of Compound 1 hemigalactarate salt (Example 5); type: in vivo
Description: Blood plasma for the patients was collected on Day 29 predose (time 0) and after a series of time points (10 min, 20 min, 30 min, 1 hr, 2 hrs, 4 hrs, 5 hrs, 6 hrs, 7 hrs, 8 hrs, and 24 hrs) after a single administration of drug. The blood plasma was analyzed for Compound 1.
The following pharmacokinetic parameters for Compound 1 were calculated: • Cmax: Maximum observed concentration, observed by inspection of individual study participant plasma concentration time plots. • Tmax: Time of maximum observed concentration, obtained directly from the observed concentration time data. • AUClast: The area under the plasma concentration time curve, from time 0 to the last measurable non-zero concentration, calculated by a combination of linear and logarithmic trapezoidal methods (Linear up/log down method). • AUC0-4 h: The area under the plasma concentration time curve, from time 0 to the 4 h time point, calculated by a combination of linear and logarithmic trapezoidal methods (Linear up/log down method). • AUCinf: The area from zero time (pre-dose) extrapolated to infinite time (AUCinf) will be calculated as follows: AUCinf=AUClast+Cz/λz • AUC % Extrap: The percentage of AUCinf obtained by extrapolation (AUC % Extrap) will be calculated as follows: […]

[8] = molecular target: nAChR subtype alpha6beta2 (Homo sapiens, UniProt P17787+Q15825); details: in words; no experiment described; cited from earlier work
nAChR subtype alpha6beta2, sequence (Q15825 26-494): as the sequence (Q15825 26-494) above
nAChR subtype alpha6beta2, sequence (P17787 26-502): as the sequence (P17787 26-502) above

Caco-2 cells = assay: Caco-2 cell viability, CellTiter-Glo assay; type: cell-based, human
Description: In parallel, cell viability in the presence of varenicline tartrate and/or copper chloride was determined using CellTiter-Glo assay (Promega), which measures intracellular adenosine triphosphate levels.
Cells treated with DMSO (solvent control) served as controls. Following incubation, […] of CellTiter-Glo substrate was added to each well and the samples were incubated for 10 min on a rocking platform. Following this 10 min incubation, luminescence was recorded using a POLAR star OPTIMA plate reader (BMG Labtech). Samples were run in triplicate and data is normalized with mean luminescence of DMSO only treated cells as 100% viability.
All statistical analyses were performed using GraphPad Prism (version 9, GraphPad Software, Inc.).

SARS-CoV-2 = assay: Infection of Caco-2 cells after exposure to SARS-CoV-2 (plaque titration of supernatant); details: for percentage of Caco-2 cells infected with SARS-CoV-2, concentration dependence: 24 hours after exposure, MOI of 3, versus vehicle control, in words
human alpha3beta4 nAChR [9] = molecular target: T1, human alpha3beta4 nAChR; assay: Desensitization / antagonistic activity, cumulative exposure in the low concentration range, alpha3beta4 in Xenopus oocytes; type: cell-based; details: concentrations up to 300 nM, in words
human alpha7 nAChR [10] = molecular target: T2, human alpha7 nAChR; assay: Desensitization / antagonistic activity, cumulative exposure in the low concentration range, alpha7 in Xenopus oocytes; type: cell-based; details: concentrations up to 300 nM; in words; dihydrate
Description: as §2, §3, §4

human alpha4beta2 nAChR [11] = molecular target: T3, human alpha4beta2 nAChR; assay: Desensitization / antagonistic activity, cumulative exposure in the low concentration range, alpha4beta2 in Xenopus oocytes; type: cell-based; details: concentrations up to 300 nM; in words; dihydrate
[12] = molecular target: T4, human alpha3alpha5beta4 nAChR; assay: Desensitization / antagonistic activity, cumulative exposure in the low concentration range, alpha3alpha5beta4 in Xenopus oocytes; type: cell-based; details: concentrations up to 300 nM; in words; dihydrate
human alpha3beta4 nAChR [13] = molecular target: T1, human alpha3beta4 nAChR; assay: Sustained exposure to 300 uM varenicline tartrate and its recovery, alpha3beta4; type: cell-based; details: 300 uM applied during three minutes; in words
[14] = listed as Compound 1 citrate, mono-citrate
[15] = listed as Compound 1 hemi-galactarate dihydrate, dihydrate
[16] = test concentrations 0.1-300 uM, ACh 1280 uM reference

C(=C\[C@H]1CCNC1)/c1cncnc1 [compound 1 citrate, (R)-5-((E)pyrrolidin-3-ylvinyl)pyrimidine mono-citrate]
agonist character at nAChR alpha3beta4 (human alpha3beta4 nAChR [1]; [14]): almost as a full agonist
current evoked at 300 uM, percent of the maximal ACh-evoked current, alpha7 (human alpha7 nAChR [2]; [14]): 25%
current evoked at 300 uM, percent of the maximal ACh-evoked current, alpha7 (human alpha7 nAChR [2]; mono-citrate): 25%
agonist character at nAChR alpha7 (human alpha7 nAChR [2]; [14]): poor agonist
agonist character at nAChR alpha7 (human alpha7 nAChR [2]; mono-citrate): weak partial agonist
effect on the subsequent ACh-evoked current, alpha4beta2 (human alpha4beta2 nAChR [3]; mono-citrate): Significant inhibition of the current evoked by the second Ach exposure
agonist character at nAChR alpha4beta2 (human alpha4beta2 nAChR [3]; [14]): almost as a full agonist
EC50 ([4]; ACh 1280 uM reference): 83 ± 9.05 µM
agonist character at nAChR alpha3alpha5beta4 [4, 14]: almost as a full agonist
agonist character at nAChR alpha4alpha6beta2 [5, 14]: almost as a full agonist

C(=C\[C@H]1CCNC1)/c1cncnc1 [Compound 1, (R)-5-((E)-2-pyrrolidin-3-ylvinyl)pyrimidine]
agonist character at nAChR alpha3beta4 (human alpha3beta4 nAChR [1]): full agonist
agonist character at nAChR alpha3beta2 [6]: partial agonist
AUC % Extrap, Max ([7]; Day 29, N=7): 41.1%
AUC % Extrap, Mean ([7]; Day 29, N=7): 21.3%
AUC % Extrap, Median ([7]; Day 29, N=7): 23.3%
AUC % Extrap, Min ([7]; Day 29, N=7): 3.69% and 3.67%
detection in plasma ten minutes after administration ([7]; Day 29, 7 subjects): detected in plasma from all subjects
fraction cleared from systemic circulation before the next administration ([7]; if administered every 12 hours (4 half-lives), from maximum half-life 2.83 h): > 94%
agonist character at nAChR alpha7 (human alpha7 nAChR [2]): full agonist; also recorded: weak partial agonist
agonist character at nAChR alpha4beta2 (human alpha4beta2 nAChR [3]): full agonist
agonist character at nAChR alpha3alpha5beta4 [4]: full agonist
agonist character at nAChR alpha4alpha6beta2 [5]: full agonist

c1cnc2cc3c(cc2n1)[C@@H]1CNC[C@H]3C1 [varenicline]
agonist character at nAChR alpha3beta4 (human alpha3beta4 nAChR [1]): partial agonist
agonist character at nAChR alpha7 (human alpha7 nAChR [2]): full agonist
agonist character at nAChR alpha4beta2 (human alpha4beta2 nAChR [3]): partial agonist
agonist character at nAChR alpha3alpha5beta4 [4]: partial agonist
agonist character at nAChR alpha6beta2 [8]: partial agonist
effect on the subsequent ACh-evoked current, alpha4alpha6beta2 ([5]; after the agonist concentration series): significant inhibition of the subsequent ACh-evoked current
response compared to the ACh response, alpha4alpha6beta2 ([5]; concentrations from 0.1 uM to 300 uM): ≤ 6%
agonist character at nAChR alpha4alpha6beta2 [5]: weak partial agonist

[Cl][Cu][Cl] [copper chloride]
cellular viability at 72 hours post-drug exposure (Caco-2 cells; copper chloride concentrations of less than 1 uM): no significant impact on cellular viability
cellular viability at 72 hours post-drug exposure (Caco-2 cells; exposures greater than 1 uM copper chloride): Some cellular toxicity
percentage of Caco-2 cells infected with SARS-CoV-2, concentration dependence (SARS-CoV-2): dose-dependent decrease

C(=C\[C@H]1CCNC1)/c1cncnc1 [compound 1 hemi-galactarate dihydrate, (R)-5-((E)-2-pyrrolidin-3-ylvinyl)pyrimidine hemigalactarate dihydrate]
agonist character at nAChR alpha3beta4 (human alpha3beta4 nAChR [1]; [15]): almost as a full agonist
current evoked, percent of the maximal ACh-evoked currents, alpha3beta4 (human alpha3beta4 nAChR [1]; maximal response): about 94%
inhibition of ACh-evoked current on sustained exposure, alpha3beta4 (human alpha3beta4 nAChR [9]; dihydrate): insensitive; also recorded: no significant inhibition
inhibition of ACh-evoked current on sustained exposure, alpha7 (human alpha7 nAChR [10]): insensitive; also recorded: no significant inhibition
current evoked at 300 uM, percent of the maximal ACh-evoked current, alpha7 (human alpha7 nAChR [2]; dihydrate): 24%
agonist character at nAChR alpha7 (human alpha7 nAChR [2]; dihydrate): poor agonist
agonist character at nAChR alpha7 (human alpha7 nAChR [2]; [15]): more potent agonist than ACh
effect on the subsequent ACh-evoked current, alpha4beta2 (human alpha4beta2 nAChR [3]; dihydrate): enhanced the subsequent ACh-evoked currents
agonist character at nAChR alpha4beta2 (human alpha4beta2 nAChR [3]; [15]): more potent agonist than ACh
evoked currents larger than the maximal ACh responses, alpha4beta2 (human alpha4beta2 nAChR [3]; relative to maximal ACh response): about 2 fold
inhibition of ACh-evoked current on sustained exposure, alpha4beta2 (human alpha4beta2 nAChR [11]): marked inhibition; also recorded: inhibits in a concentration-dependent manner
EC50 ([4]; ACh 1280 uM reference): 32.1 ± 2.16 µM
agonist character at nAChR alpha3alpha5beta4 [4, 15]: almost as a full agonist
current evoked, percent of the maximal ACh-evoked currents, alpha3alpha5beta4 ([4]; maximal response): about 94%
inhibition of ACh-evoked current on sustained exposure, alpha3alpha5beta4 [12]: marked inhibition; also recorded: inhibits in a concentration-dependent manner

varenicline tartrate [reference compound]
agonist character at nAChR alpha3beta4 (human alpha3beta4 nAChR [1]): partial agonist
EC50 at nAChR alpha3beta4 (human alpha3beta4 nAChR [1]; [16]): low micromolar range
inhibition of ACh-evoked current on sustained exposure, alpha3beta4 (human alpha3beta4 nAChR [9]): very modest effect; also recorded: no significant inhibition
cellular viability at 72 hours post-drug exposure (Caco-2 cells; even at 100 uM varenicline tartrate): no significant impact on cellular viability
infection rate of the cells without copper chloride (SARS-CoV-2; 0.1 uM and 0.5 uM varenicline tartrate, 24 hours, MOI 3, normalized to untreated (FIG. 3)): ~100%
percentage of Caco-2 cells infected with SARS-CoV-2, concentration dependence (SARS-CoV-2): dose-dependent decrease
current evoked by sustained exposure, alpha3beta4 (human alpha3beta4 nAChR [13]): larger current amplitude; also recorded: rather large response
effect on the subsequent ACh-evoked current, alpha4beta2 (human alpha4beta2 nAChR [3]): major inhibition of the subsequent ACh-evoked current
agonist character at nAChR alpha4beta2 (human alpha4beta2 nAChR [3]): partial agonist
agonist character at nAChR alpha4beta2 (human alpha4beta2 nAChR [3]; listed as Varenicline tartrate): very poor agonist
EC50 at nAChR alpha4beta2 (human alpha4beta2 nAChR [3]; [16]): low micromolar range
agonist character at nAChR alpha3alpha5beta4 [4]: partial agonist
EC50 at nAChR alpha3alpha5beta4 [4, 16]: low micromolar range
